Assay results as given in ChEMBL document CHEMBL3045111, “Synthesis and herbicidal activities of novel 3-(substituted benzyloxy or phenoxy)-6-methyl-4-(3-trifluoromethylphenyl)pyridazine derivatives” (2012).
The source made the active and inactive calls. The rule behind the calls is not given here.

Tests used:
[1] = test system: Brassica rapa subsp. oleifera; assay: Post-emergence herbicidal activity against one-leaf stage Brassica rapa subsp. oleifera under greenhouse condition assessed as complete bleaching of leaves at 600 g /ha measured after 24 days by spray method; type: functional, organism-based
[2] = test system: Brassica rapa subsp. oleifera; assay: Post-emergence herbicidal activity against one-leaf stage Brassica rapa subsp. oleifera under greenhouse condition at 150 g /ha measured after 24 days by spray method; type: functional; conditions: 576 h, read-out: GI
[3] = test system: Brassica rapa subsp. oleifera; assay: Post-emergence herbicidal activity against one-leaf stage Brassica rapa subsp. oleifera under greenhouse condition at 300 g /ha measured after 24 days by spray method; type: functional; conditions: 576 h, read-out: GI
[4] = test system: Brassica rapa subsp. oleifera; assay: Post-emergence herbicidal activity against one-leaf stage Brassica rapa subsp. oleifera under greenhouse condition at 600 g /ha measured after 24 days by spray method; type: functional; conditions: 576 h, read-out: GI
Digitaria [5] = assay: Post-emergence herbicidal activity against one-leaf stage of Digitaria adscendens under greenhouse condition at 750 g /ha measured after 24 days by spray method; type: functional; conditions: in Digitaria adscendens, 576 h, read-out: GI
Echinochloa crus-galli [6] = assay: Post-emergence herbicidal activity against one-leaf stage of Echinochloa crus-galli (barnyard grass) under greenhouse condition at 750 g /ha measured after 24 days by spray method; type: functional; conditions: 576 h, read-out: GI
Amaranthus retroflexus [7] = assay: Post-emergence herbicidal activity against one-leaf stage of Amaranthus retroflexus under greenhouse condition at 750 g /ha measured after 24 days by spray method; type: functional; conditions: 576 h, read-out: GI
[8] = test system: Brassica rapa subsp. oleifera; assay: Post-emergence herbicidal activity against one-leaf stage Brassica rapa subsp. oleifera under greenhouse condition at 750 g /ha measured after 24 days by spray method; type: functional; conditions: 576 h, read-out: GI
Digitaria [9] = assay: Pre-emergence herbicidal activity against Digitaria adscendens under greenhouse condition at 750 g /ha measured after 24 days by spray method; type: functional; conditions: in Digitaria adscendens, 576 h, read-out: GI
Echinochloa crus-galli [10] = assay: Pre-emergence herbicidal activity against Echinochloa crus-galli (barnyard grass) under greenhouse condition at 750 g /ha measured after 24 days by spray method; type: functional; conditions: 576 h, read-out: GI
Amaranthus retroflexus [11] = assay: Pre-emergence herbicidal activity against Amaranthus retroflexus under greenhouse condition at 750 g /ha measured after 24 days by spray method; type: functional; conditions: 576 h, read-out: GI
[12] = test system: Brassica rapa subsp. oleifera; assay: Pre-emergence herbicidal activity against Brassica rapa subsp. oleifera under greenhouse condition at 750 g /ha measured after 24 days by spray method; type: functional; conditions: 576 h, read-out: GI
Spirodela polyrhiza [13] = assay: Bleaching herbicidal activity in Spirodela polyrhiza fronds cultured in compound-containing in medium assessed as chlorophyll inhibition at 1 ug/ml after 7 days; type: functional; conditions: 168 h
Spirodela polyrhiza [14] = assay: Bleaching herbicidal activity in Spirodela polyrhiza fronds cultured in compound-containing in medium assessed as chlorophyll inhibition at 10 ug/ml after 7 days; type: functional; conditions: 168 h
[15] = test system: Brassica rapa subsp. oleifera; assay: Post-emergence herbicidal activity against one-leaf stage Brassica rapa subsp. oleifera under greenhouse condition assessed as complete bleaching of leaves at 150 g /ha measured after 24 days by spray method; type: functional, organism-based
[16] = test system: Brassica rapa subsp. oleifera; assay: Post-emergence herbicidal activity against one-leaf stage Brassica rapa subsp. oleifera under greenhouse condition assessed as complete bleaching of leaves at 300 g /ha measured after 24 days by spray method; type: functional, organism-based
[17] = test system: Brassica rapa subsp. oleifera; assay: Post-emergence herbicidal activity against one-leaf stage Brassica rapa subsp. oleifera under greenhouse condition at 75 g /ha measured after 24 days by spray method; type: functional; conditions: 576 h, read-out: GI
[18] = test system: Brassica rapa subsp. oleifera; assay: Post-emergence herbicidal activity against one-leaf stage Brassica rapa subsp. oleifera under greenhouse condition assessed as complete bleaching of leaves at 75 g /ha measured after 24 days by spray method; type: functional, organism-based
Amaranthus retroflexus [19] = assay: Post-emergence herbicidal activity against one-leaf stage Amaranthus retroflexus under greenhouse condition assessed as complete bleaching of leaves at 300 g /ha measured after 24 days by spray method; type: functional, organism-based
Amaranthus retroflexus [20] = assay: Post-emergence herbicidal activity against one-leaf stage Amaranthus retroflexus under greenhouse condition assessed as complete bleaching of leaves at 600 g /ha measured after 24 days by spray method; type: functional, organism-based
Amaranthus retroflexus [21] = assay: Post-emergence herbicidal activity against one-leaf stage Amaranthus retroflexus under greenhouse condition at 75 g /ha measured after 24 days by spray method; type: functional; conditions: 576 h, read-out: GI
Amaranthus retroflexus [22] = assay: Post-emergence herbicidal activity against one-leaf stage Amaranthus retroflexus under greenhouse condition at 150 g /ha measured after 24 days by spray method; type: functional; conditions: 576 h, read-out: GI
Amaranthus retroflexus [23] = assay: Post-emergence herbicidal activity against one-leaf stage Amaranthus retroflexus under greenhouse condition at 300 g /ha measured after 24 days by spray method; type: functional; conditions: 576 h, read-out: GI
Amaranthus retroflexus [24] = assay: Post-emergence herbicidal activity against one-leaf stage Amaranthus retroflexus under greenhouse condition at 600 g /ha measured after 24 days by spray method; type: functional; conditions: 576 h, read-out: GI

Row | SMILES | Activity [1] | inhibition of growth at 150 g/ha [2] | inhibition of growth at 300 g/ha [3] | inhibition of growth at 600 g/ha [4] | inhibition of growth at 750 g/ha (Digitaria [5]) | inhibition of growth at 750 g/ha (Echinochloa crus-galli [6]) | inhibition of growth at 750 g/ha (Amaranthus retroflexus [7]) | inhibition of growth at 750 g/ha [8] | inhibition of growth at 750 g/ha (Digitaria [9]) | inhibition of growth at 750 g/ha (Echinochloa crus-galli [10]) | inhibition of growth at 750 g/ha (Amaranthus retroflexus [11]) | inhibition of growth at 750 g/ha [12] | inhibition at 1 µg/mL (Spirodela polyrhiza [13]) | inhibition at 10 µg/mL (Spirodela polyrhiza [14]) | Activity [15] | Activity [16] | further results
1 | Cc1cc(-c2cccc(C(F)(F)F)c2)c(OCc2ccccc2Br)nn1 | Active | 49% | 73% | 85% | 3% | 0% | 54% | 91% | 25% | 1% | 21% | 8% | 93% | 100% | Active | Active | 
2 | Cc1cc(-c2cccc(C(F)(F)F)c2)c(OCc2ccccc2)nn1 | Active | 62% | 86% | 92% | 0% | 29% | 50% | 94% | 7% | 27% | 38% | 55% | 62% | 82% | Active | Active | 
3 | Cc1cc(-c2cccc(C(F)(F)F)c2)c(OCc2ccccc2C(F)(F)F)nn1 | Active | 38% | 49% | 92% | 8% | 14% | 46% | 93% | 2% | 17% | 16% | 28% | 73% | 76% | Active | Active | 
4 | Cc1cc(-c2cccc(C(F)(F)F)c2)c(OCc2cccc(F)c2)nn1 | Active | 30% | 47% | 66% | 0% | 14% | 47% | 93% | 10% | 18% | 9% | 0% | 89% | 96% | Active | Active | 
5 | Cc1cc(-c2cccc(C(F)(F)F)c2)c(OCc2ccccc2Cl)nn1 | Active | 57% | 96% | 97% | 26% | 16% | 47% | 90% | 26% | 0% | 40% | 52% | 59% | 93% | Active | Active | 
6 | Cc1cc(-c2cccc(C(F)(F)F)c2)c(OCc2ccccc2C)nn1 | Active | 79% | 86% | 95% | 7% | 55% | 29% | 97% | 19% | 2% | 36% | 58% | 62% | 86% | Active | Active | inhibition of growth at 75 g/ha [17]: 44%; Activity [18]: Active
7 | Cc1cc(-c2cccc(C(F)(F)F)c2)c(Oc2ccccc2Cl)nn1 | Active | 48% | 67% | 91% | 27% | 24% | 84% | 100% | 19% | 0% | 0% | 9% | 42% | 50% | Active | Active | inhibition of growth at 75 g/ha [17]: 31%; Activity (Amaranthus retroflexus [19]): Active; Activity (Amaranthus retroflexus [20]): Active; Activity [18]: Active; inhibition of growth at 75 g/ha (Amaranthus retroflexus [21]): 5%; inhibition of growth at 150 g/ha (Amaranthus retroflexus [22]): 20%; inhibition of growth at 300 g/ha (Amaranthus retroflexus [23]): 39%; inhibition of growth at 600 g/ha (Amaranthus retroflexus [24]): 65%
8 | Cc1cc(-c2cccc(C(F)(F)F)c2)c(Oc2ccccc2F)nn1 |  |  |  |  | 16% | 5% | 73% | 69% | 11% | 6% | 23% | 4% | 63% | 66% |  |  | 
9 | Cc1ccc(Oc2nnc(C)cc2-c2cccc(C(F)(F)F)c2)c(C)c1 |  |  |  |  | 19% | 18% | 64% | 45% | 0% | 15% | 0% | 0% | 0% | 41% |  |  | 
